Source: patent US20190134069A1, “USE OF THYROID BETA-AGONISTS” (priority 2016, published 2019)

Tests used:
[1] = tested on: X-ALD fibroblast cell lines; test: Cell health (proliferation, morphology) of X-ALD fibroblasts incubated with compounds; assay type: cell-based, Human; details: for cell health judged by proliferation and morphology: after 72 hours; for cell survival (toxicity): 100 μM, both X-ALD cell lines, within 24 hours
Protocol: (§1) Human skin fibroblasts were obtained from X-ALD patients through the Neurology Outpatient Clinic of the Academic Medical Center. Written informed consent was received from each patient. X-ALD diagnosis was confirmed by VLCFA and ABCD1 mutation analysis. Control fibroblasts were obtained from male anonymous volunteers with written informed consent. Fibroblasts were cultured in Dulbecco's modified Eagle's medium (DMEM) with L-glutamine and 4.5 g/L glucose, supplemented with 10% fetal calf serum, 2.5 mM HEPES, 100 U/ml penicillin and 100 U/ml streptomycin. Cells were cultured at 37° C. in a humidified 5% CO2 atmosphere. All fibroblast cell lines used were tested routinely for mycoplasma. All tests were negative.
10 mM stock solutions in DMSO were prepared by weighing the amount of compound (1 and 3 and their respective active metabolites, 2 and 4) as indicated in Table 2. Stock solutions were stored at room temperature in the dark. For each incubation, the amount of tissue culture medium needed was calculated and a stock solution of tissue culture medium with the final concentration of the to-be-tested compound was prepared. Tissue culture medium was removed from the cells, cells were washed once with PBS and the tissue culture medium with the compounds was added. If an experiment lasted longer than three days, the tissue culture medium and compounds were refreshed (using a fresh preparation) after three days until the end of the experiment.
Two different X-ALD fibroblast cell lines were incubated in duplicate with four compounds at three dosages as highlighted in Table 3.
4 X-ALD cell lines were incubated with 10 μM of 4 compounds 1, 2, 3, and 4. The effect of treatment on ABCD2 expression was analyzed at day 3 and day 10. For the 10 day incubation, tissue culture medium and compounds were refreshed at day 3 and day 6.

ABCD1−/− mice [2] = test: Whole blood VLCFA-LPC levels in in vivo model of X-ALD; details: for Mean blood C26:0-LPC level: once daily IP
Protocol: (§2) Male ABCD1−/− mice were developed using the Taconic 129SvEv background strain. Animals were housed 3-4/cage under a 12-hour lighting cycle (7 AM-7 PM light) and controlled temperature (22° C.) in the rodent facility. They were fed standard mouse chow and had access to drinking water ad libitum. Mice were between 2 and 3 months of age at the beginning of each study.
(§3) Mice were injected once daily intraperitoneal with either drug or vehicle. For blood collection, ˜50 μL of blood was obtained by facial vein puncture using a sterile lancet. Blood was collected in a 1.5 ml microcentrifuge tube containing dried dipotassium EDTA and mixed by gentle inversion at least ten times before storing at −20° C. Blood was obtained in this manner following two, four, and six weeks of treatment. Following blood collection at six weeks, animals were sacrificed by cervical dislocation. Additional blood for preparation of plasma was obtained via cardiac puncture, and blood placed in Microtainer tubes. Brain, spinal cord, adrenal glands, testis, and liver were excised and snap frozen in liquid nitrogen for future analyses.

ABCD1−/− mice [3] = test: Plasma VLCFA-LPC levels in in vivo model of X-ALD
Protocol: as §2, §3
During the second cohort study, blood was obtained as described in the Methods section. At the six week time point sufficient blood was collected to permit plasma VLCFA analyses at weeks two, four and six. Plasma is considered by many to be a more reliable measurement of VLCFA levels, because of reduced analytical interference from other analytes, as well as reduced variability of the measurements.

X-ALD cell lines [4] = test: D3-C26:0 de novo synthesis from D3-C22:0 in intact cells; assay type: cell-based, Human; details: 10 day treatment, 5 X-ALD cell lines
Protocol: as §1
The effect of treatment on D3-C26:0 synthesis in intact cells. The effect of certain compounds of the invention on the synthesis of D3-C26:0 from D3-C22:0 was measured in cultured skin fibroblasts from controls and X-ALD patients. Cells were seeded at approximately 40% confluency in T75 flasks in DMEM. The next day, medium was replaced with medium containing 30 μM D3-C22:0 and the assayed compounds at their final concentration. […] Each 72 h, the tissue culture medium and compounds was refreshed. At the end of the experiment cells were harvested and VLCFA analyzed as described (Valianpour et al., Molecular Genetics and Metabolism, 79: 189-196 (2003)).
VLCFA were analyzed by electrospray ionization mass spectrometry (ESI-MS) as described (Valianpour et al., Molecular Genetics and Metabolism, 79: 189-196 (2003)).
5 different X-ALD cell lines were incubated for 6 days with compounds 1, 2, 3, and 4 at 10 μM, 5 mM 4PBA (sodium 4-phenylbutyrate), or 0.1 μM sobetirome. On Day 6, 30 μM D3C22:0 was added to assess the effect of treatment on beta-oxidation and de novo D3C26:0 synthesis. 6 untreated control cells as well as 5 different untreated X-ALD cells were included to allow assessment of the treatment effect. The total set consisted of 41 experiments

X-ALD cell lines [5] = test: D3-C22:0 (VLCFA) beta-oxidation in intact cells; assay type: cell-based, Human; details: 10 day treatment, 5 X-ALD cell lines
Protocol: as §1
Peroxisomal beta-oxidation activity was measured essentially as described by incubating cells with 30 μM deuterium-labeled C22:0 (D3-C22:0) (Kemp et al., Clinical Chemistry 50: 1824-1826 (2004)). Cells were seeded at approximately 40% confluency in T75 flasks in DMEM. […] At the end of the experiment cells were harvested and VLCFA analyzed as described (Valianpour et al., Molecular Genetics and Metabolism, 79: 189-196 (2003)).
VLCFA were analyzed by electrospray ionization mass spectrometry (ESI-MS) as described (Valianpour et al., Molecular Genetics and Metabolism, 79: 189-196 (2003)). […]

[6] = second cohort, week 6, p<0.0001

Structure (SMILES): Cc1cc(OCP(=O)(O)O)cc(C)c1Cc1ccc(O)c(C(C)C)c1 [Compound 2]
- cell health judged by proliferation and morphology ([1]; 0.1, 1 or 10 μM): looked healthy

Structure (SMILES): Cc1cc(OCP(=O)(OCOC(=O)C(C)(C)C)OCOC(=O)C(C)(C)C)cc(C)c1Cc1ccc(O)c(Cc2ccccc2)c1 [Compound 3]
- reduction in whole blood C26:0-LPC levels relative to vehicle controls (ABCD1−/− mice [2]; initial cohort, after six week treatment, p<0.0001): 40%
- Mean blood C26:0-LPC level (ABCD1−/− mice [2]; initial cohort, week 2): 0.262 µM
- Mean blood C26:0-LPC level (ABCD1−/− mice [2]; initial cohort, week 4): 0.276 µM
- Mean blood C26:0-LPC level (ABCD1−/− mice [2]; initial cohort, week 6): 0.356 µM
- Difference in Mean Change from Baseline, blood C26:0-LPC (ABCD1−/− mice [2]; initial cohort, week 2): -0.052 µM
- % Difference versus Vehicle, blood C26:0-LPC (ABCD1−/− mice [2]; initial cohort, week 2, p NS): 0%
- Difference in Mean Change from Baseline, blood C26:0-LPC (ABCD1−/− mice [2]; initial cohort, week 4): -0.081 µM
- % Difference versus Vehicle, blood C26:0-LPC (ABCD1−/− mice [2]; initial cohort, week 4, p NS): −11%
- Difference in Mean Change from Baseline, blood C26:0-LPC (ABCD1−/− mice [2]; initial cohort, week 6): -0.188 µM
- % Difference versus Vehicle, blood C26:0-LPC (ABCD1−/− mice [2]; initial cohort, week 6, p<0.0001): −40%
- reduction in whole blood C26:0-LPC levels (change from baseline) (ABCD1−/− mice [2]; second cohort, daily IP, six weeks of treatment, FIG. 8): approximately 0.11 μM
- Least Squares Mean Change from Baseline Whole Blood C26:0-LPC (ABCD1−/− mice [2]; second cohort, week 2, p NS versus vehicle): -0.021 µM
- Least Squares Mean Change from Baseline Whole Blood C26:0-LPC (ABCD1−/− mice [2]; second cohort, week 4, p<0.01 versus vehicle): -0.096 µM
- Least Squares Mean Change from Baseline Whole Blood C26:0-LPC (ABCD1−/− mice [2]; second cohort, week 6, p<0.005 versus vehicle): -0.12 µM
- reduction in C26:0-LPC relative to vehicle-treated animals (ABCD1−/− mice [2]; second cohort, whole blood, six weeks, p<0.005): 52%
- C20:0-, C22:0-, and C24:0-LPC levels (ABCD1−/− mice [3]; after six weeks of treatment): significant reductions
- Mean plasma C20:0-LPC level (ABCD1−/− mice [3]; second cohort, week 6): 0.76 µM
- Mean plasma C22:0-LPC level (ABCD1−/− mice [3]; second cohort, week 6): 0.20 µM
- Mean plasma C24:0-LPC level (ABCD1−/− mice [3]; second cohort, week 6): 1.14 µM
- Mean plasma C26:0-LPC level (ABCD1−/− mice [3]; second cohort, week 6): 0.20 µM
- % Difference vs. Vehicle, plasma C20:0-LPC (ABCD1−/− mice [3]; [6]): −54%
- % Difference vs. Vehicle, plasma C22:0-LPC (ABCD1−/− mice [3]; [6]): −43%
- % Difference vs. Vehicle, plasma C26:0-LPC (ABCD1−/− mice [3]; [6]): −29%
- % Difference vs. Vehicle, plasma C24:0-LPC (ABCD1−/− mice [3]; second cohort, week 6, p<0.005): −21%
- cell survival (toxicity) [1]: dead
- cell health judged by proliferation and morphology ([1]; 0.1 or 10 μM): looked healthy

Structure (SMILES): Cc1cc(OCP(=O)(O)O)cc(C)c1Cc1ccc(O)c(Cc2ccccc2)c1 [Compound 4]
- cell health judged by proliferation and morphology ([1]; 0.1, 1 or 10 μM): looked healthy

Structure (SMILES): Cc1cc(OCC(=O)O)cc(C)c1Cc1ccc(O)c(C(C)C)c1 [sobetirome]
- effect on VLCFA de novo synthesis (X-ALD cell lines [4]; 0.1 μM): did not show any beneficial effect
- effect on VLCFA beta-oxidation (X-ALD cell lines [5]; 0.1 μM): did not show any beneficial effect

Structure (SMILES): O=C([O-])CCCc1ccccc1.[Na+] [Compound 4PBA, sodium 4-phenylbutyrate]
- VLCFA (D3C26:0) de novo synthesis (X-ALD cell lines [4]; 5 mM): near normal levels
- VLCFA beta-oxidation restored (X-ALD cell lines [5]; 5 mM): ~50 % of controls

Structure (SMILES): Cc1cc(OC[P@@]2(=O)OCC[C@@H](c3cccc(Cl)c3)O2)cc(C)c1Cc1ccc(O)c(C(C)C)c1 [Compound 1]
- cell survival (toxicity) [1]: dead
- cell health judged by proliferation and morphology ([1]; 0.1 or 10 μM): looked healthy
- reduction in D3C26:0 de novo synthesis (X-ALD cell lines [4]; 10 μM): ~40%
